Results published in patent US7795290B2 (Genentech, Inc., priority 2004, dated 2010).

Molecular target: T1, AKT1 (Homo sapiens, UniProt P31749)
T1 construct: purchased Upstate 14-276
Experiment: HTS ATP-utilizing enzyme assay, off-chip mobility-shift (Caliper HTS 250)
Assay type: biochemical
Conditions: kinase named = inhibitory activity/selectivity; test compound 10 μM; active = greater than three-sigma from mean
Method in brief: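 AKT1 activity was measured by off-chip mobility shift (Caliper HTS 250) as the ratio of peptide substrate to phosphorylated product. Test compound was at 10 μM, with 2.5 h incubation at 20–22° C. EDTA wells served as 100% control and DMSO wells as 0%. Hits were called at three-sigma limits.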

T1 sequence (P31749 whole entry): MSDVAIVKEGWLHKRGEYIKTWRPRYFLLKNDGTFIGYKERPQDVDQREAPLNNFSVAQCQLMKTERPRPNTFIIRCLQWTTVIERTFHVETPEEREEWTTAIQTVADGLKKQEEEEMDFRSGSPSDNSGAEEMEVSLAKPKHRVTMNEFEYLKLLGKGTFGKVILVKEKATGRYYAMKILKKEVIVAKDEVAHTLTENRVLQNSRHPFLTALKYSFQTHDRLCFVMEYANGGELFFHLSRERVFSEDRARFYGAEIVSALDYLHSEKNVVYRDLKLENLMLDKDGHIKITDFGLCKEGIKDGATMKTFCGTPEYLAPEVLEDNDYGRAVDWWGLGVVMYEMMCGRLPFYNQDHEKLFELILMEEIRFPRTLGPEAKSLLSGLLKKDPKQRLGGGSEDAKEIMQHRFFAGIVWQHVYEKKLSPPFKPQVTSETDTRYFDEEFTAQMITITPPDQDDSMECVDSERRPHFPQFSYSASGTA

Row | Compound | Activity
1 | O=C(c1cccs1)N(CCCN1CCOCC1)c1nc(-c2ccccc2C(F)(F)F)cs1 [N-(3-morpholinopropyl)-N-(4-(2-(trifluoromethyl)phenyl)thiazol-2-yl)thiophene-2-carboxamide] | AKT1
2 | O=C1COc2ccc(-c3csc(N(CCCN4CCOCC4)C(=O)c4cccs4)n3)cc2N1 [N-(3-morpholinopropyl)-N-(4-(3-oxo-3,4-dihydro-2H-benzo[b][1,4]oxazin-6-yl)thiazol-2-yl)thiophene-2-carboxamide] | AKT1
3 | O=C(c1ccco1)N(CCCN1CCOCC1)c1nc(-c2cc(-c3ccccc3)no2)cs1 [N-(3-morpholinopropyl)-N-(4-(3-phenylisoxazol-5-yl)thiazol-2-yl)furan-2-carboxamide] | AKT1
4 | O=C(c1cccs1)N(CCCN1CCOCC1)c1nc(-c2ccc(N3CCCC3)cc2)cs1 [N-(3-morpholinopropyl)-N-(4-(4-(pyrrolidin-1-yl)phenyl)thiazol-2-yl)thiophene-2-carboxamide] | AKT1
5 | O=C(c1cccs1)N(CCCN1CCOCC1)c1nc(-c2ccc(OC(F)(F)F)cc2)cs1 [N-(3-morpholinopropyl)-N-(4-(4-(trifluoromethoxy)phenyl)thiazol-2-yl)thiophene-2-carboxamide] | AKT1
6 | CCCCCc1ccc(-c2csc(N(CCCN3CCOCC3)C(=O)c3cccs3)n2)cc1 [N-(3-morpholinopropyl)-N-(4-(4-pentylphenyl)thiazol-2-yl)thiophene-2-carboxamide] | AKT1
7 | O=C(c1cccs1)N(CCCN1CCOCC1)c1nc(-c2cc3cc([N+](=O)[O-])ccc3o2)cs1 [N-(3-morpholinopropyl)-N-(4-(5-nitrobenzofuran-2-yl)thiazol-2-yl)thiophene-2-carboxamide] | AKT1
8 | O=C(c1cccs1)N(CCCN1CCOCC1)c1nc(-c2cccs2)cs1 [N-(3-morpholinopropyl)-N-(4-(thiophen-2-yl)thiazol-2-yl)thiophene-2-carboxamide] | AKT1
9 | O=C(c1cccs1)N(CCCN1CCOCC1)c1nc(C(F)(F)F)cs1 [N-(3-morpholinopropyl)-N-(4-(trifluoromethyl)thiazol-2-yl)thiophene-2-carboxamide] | AKT1
10 | Cc1ccc(-c2csc(N(CCCN3CCOCC3)C(=O)c3cccs3)n2)cc1 [N-(3-morpholinopropyl)-N-(4-p-tolylthiazol-2-yl)thiophene-2-carboxamide] | AKT1
11 | O=C(c1cccs1)N(CCCN1CCOCC1)c1nc(-c2ccccc2)cs1 [N-(3-morpholinopropyl)-N-(4-phenylthiazol-2-yl)thiophene-2-carboxamide] | AKT1
12 | O=C(c1cccs1)N(CCCN1CCOCC1)c1nc(-c2ccc3c(c2)OCCO3)cs1 [N-(4-(2,3-dihydrobenzo[b][1,4]dioxin-6-yl)thiazol-2-yl)-N-(3-morpholinopropyl)thiophene-2-carboxamide] | AKT1
13 | O=C(c1cccs1)N(CCCN1CCOCC1)c1nc(-c2ccc(Cl)cc2Cl)cs1 [N-(4-(2,4-dichlorophenyl)thiazol-2-yl)-N-(3-morpholinopropyl)thiophene-2-carboxamide] | AKT1
14 | COc1ccc(-c2csc(N(CCCN3CCOCC3)C(=O)c3cccs3)n2)c(OC)c1 [N-(4-(2,4-dimethoxyphenyl)thiazol-2-yl)-N-(3-morpholinopropyl)thiophene-2-carboxamide] | AKT1
15 | Cc1ccc(-c2csc(N(CCCN3CCOCC3)C(=O)c3cccs3)n2)c(C)c1 [N-(4-(2,4-dimethylphenyl)thiazol-2-yl)-N-(3-morpholinopropyl)thiophene-2-carboxamide] | AKT1
16 | COc1ccc(OC)c(-c2csc(N(CCCN3CCCCC3)C(=O)c3ccccc3)n2)c1 [N-(4-(2,5-dimethoxyphenyl)thiazol-2-yl)-N-(3-(piperidin-1-yl)propyl)benzamide] | AKT1
17 | COc1ccc(OC)c(-c2csc(N(CCCN3CCCCC3)C(=O)c3ccco3)n2)c1 [N-(4-(2,5-dimethoxyphenyl)thiazol-2-yl)-N-(3-(piperidin-1-yl)propyl)furan-2-carboxamide] | AKT1
18 | COc1ccc(OC)c(-c2csc(N(CCCN3CCCCC3)C(=O)c3cccs3)n2)c1 [N-(4-(2,5-dimethoxyphenyl)thiazol-2-yl)-N-(3-(piperidin-1-yl)propyl)thiophene-2-carboxamide] | AKT1
19 | COc1ccc(OC)c(-c2csc(N(CCCN3CCCC3)C(=O)c3ccccc3)n2)c1 [N-(4-(2,5-dimethoxyphenyl)thiazol-2-yl)-N-(3-(pyrrolidin-1-yl)propyl)benzamide] | AKT1
20 | COc1ccc(OC)c(-c2csc(N(CCCN3CCOCC3)C(=O)c3cccs3)n2)c1 [N-(4-(2,5-dimethoxyphenyl)thiazol-2-yl)-N-(3-morpholinopropyl)thiophene-2-carboxamide] | AKT1
21 | COc1ccc(-c2csc(N(CCCN3CCOCC3)C(=O)c3cccs3)n2)c(OC)n1 [N-(4-(2,6-dimethoxypyridin-3-yl)thiazol-2-yl)-N-(3-morpholinopropyl)thiophene-2-carboxamide] | AKT1
22 | NC(=O)CNC(=O)CCCN(C(=O)c1cccs1)c1nc(-c2cc3ccccc3o2)cs1 [N-(4-(2-amino-2-oxoethylamino)-4-oxobutyl)-N-(4-(benzofuran-2-yl)thiazol-2-yl)thiophene-2-carboxamide] | AKT1

More lines, now with the values ahead:

Row | Activity | Compound
23 | AKT1 | O=C(NCc1cccc(Cl)c1)c1csc(N(CCCN2CCOCC2)C(=O)c2cccs2)n1 [N-(3-chlorobenzyl)-2-(N-(3-morpholinopropyl)thiophene-2-carboxamido)thiazole-4-carboxamide]
24 | AKT1 | COc1cccc(CNC(=O)c2csc(N(CCCN3CCOCC3)C(=O)c3cccs3)n2)c1 [N-(3-methoxybenzyl)-2-(N-(3-morpholinopropyl)thiophene-2-carboxamido)thiazole-4-carboxamide]
25 | AKT1 | COc1cccc(NC(=O)c2csc(N(CCCN3CCOCC3)C(=O)c3cccs3)n2)c1 [N-(3-methoxyphenyl)-2-(N-(3-morpholinopropyl)thiophene-2-carboxamido)thiazole-4-carboxamide]
26 | AKT1 | O=C(c1cccs1)N(CCCN1CCOCC1)c1nc(-c2ccccc2[N+](=O)[O-])cs1 [N-(3-morpholinopropyl)-N-(4-(2-nitrophenyl)thiazol-2-yl)thiophene-2-carboxamide]
27 | AKT1 | O=C(c1cccs1)N(CCCN1CCOCC1)c1nc(-c2cccc(C(F)(F)F)c2)cs1 [N-(3-morpholinopropyl)-N-(4-(3-(trifluoromethyl)phenyl)thiazol-2-yl)thiophene-2-carboxamide]
28 | AKT1 | O=C(c1cccs1)N(CCCN1CCOCC1)c1nc(-c2cc(-c3ccccc3)no2)cs1 [N-(3-morpholinopropyl)-N-(4-(3-phenylisoxazol-5-yl)thiazol-2-yl)thiophene-2-carboxamide]
29 | AKT1 | O=C(c1cccs1)N(CCCN1CCOCC1)c1nc(-c2ccc(-c3ccccn3)s2)cs1 [N-(3-morpholinopropyl)-N-(4-(5-(pyridin-2-yl)thiophen-2-yl)thiazol-2-yl)thiophene-2-carboxamide]
30 | AKT1 | O=C(c1cccs1)N(CCCN1CCOCC1)c1nc(-c2ccc3ccccc3c2)cs1 [N-(3-morpholinopropyl)-N-(4-(naphthalen-2-yl)thiazol-2-yl)thiophene-2-carboxamide]
31 | AKT1 | O=C(c1cccs1)N(CCCN1CCOCC1)c1nc(-c2ccccn2)cs1 [N-(3-morpholinopropyl)-N-(4-(pyridin-2-yl)thiazol-2-yl)thiophene-2-carboxamide]
32 | AKT1 | O=C(c1ccccc1)N(CCCN1CCOCC1)c1nc(-c2ccccc2)cs1 [N-(3-morpholinopropyl)-N-(4-phenylthiazol-2-yl)benzamide]
33 | AKT1 | O=C(c1ccco1)N(CCCN1CCOCC1)c1nc(-c2ccccc2)cs1 [N-(3-morpholinopropyl)-N-(4-phenylthiazol-2-yl)furan-2-carboxamide]
34 | AKT1 | O=C(c1cccs1)N(CCCN1CCOCC1)c1nc(-c2cc3ccccc3[nH]2)cs1 [N-(4-(1H-indol-2-yl)thiazol-2-yl)-N-(3-morpholinopropyl)thiophene-2-carboxamide]
35 | AKT1 | COc1ccc(OC)c(-c2csc(N(CCCN3CCN(C)CC3)C(=O)c3ccccc3)n2)c1 [N-(4-(2,5-dimethoxyphenyl)thiazol-2-yl)-N-(3-(4-methylpiperazin-1-yl)propyl)benzamide]
36 | AKT1 | COc1ccc(OC)c(-c2csc(N(CCCN3CCN(C)CC3)C(=O)c3cccs3)n2)c1 [N-(4-(2,5-dimethoxyphenyl)thiazol-2-yl)-N-(3-(4-methylpiperazin-1-yl)propyl)thiophene-2-carboxamide]
37 | AKT1 | COc1ccc(OC)c(-c2csc(N(CCCN3CCCC3)C(=O)c3ccco3)n2)c1 [N-(4-(2,5-dimethoxyphenyl)thiazol-2-yl)-N-(3-(pyrrolidin-1-yl)propyl)furan-2-carboxamide]
38 | AKT1 | COc1ccc(OC)c(-c2csc(N(CCCN3CCCC3)C(=O)c3cccs3)n2)c1 [N-(4-(2,5-dimethoxyphenyl)thiazol-2-yl)-N-(3-(pyrrolidin-1-yl)propyl)thiophene-2-carboxamide]
39 | AKT1 | COc1ccc(OC)c(-c2csc(N(CCCN3CCOCC3)C(=O)c3ccco3)n2)c1 [N-(4-(2,5-dimethoxyphenyl)thiazol-2-yl)-N-(3-morpholinopropyl)furan-2-carboxamide]
40 | AKT1 | O=C(c1cccs1)N(CCCN1CCOCC1)c1nc(-c2ccccc2Cl)cs1 [N-(4-(2-chlorophenyl)thiazol-2-yl)-N-(3-morpholinopropyl)thiophene-2-carboxamide]
41 | AKT1 | O=C(c1cccs1)N(CCCN1CCOCC1)c1nc(-c2ccccc2F)cs1 [N-(4-(2-fluorophenyl)thiazol-2-yl)-N-(3-morpholinopropyl)thiophene-2-carboxamide]
42 | AKT1 | COc1ccccc1-c1csc(N(CCCN2CCOCC2)C(=O)c2cccs2)n1 [N-(4-(2-methoxyphenyl)thiazol-2-yl)-N-(3-morpholinopropyl)thiophene-2-carboxamide]
